Data: PubChem BioAssay AID330 (DTP/NCI, 2004)
Several values for one entry are separate records, joined by “and”; a condition that tells them apart may be missing. Equal entries are not always repeated. Inconclusive results and toxic doses are left out. Peptide text beside a SMILES is read from it. * marks the point of attachment. Cbz = O=C(OCc1ccccc1)*

Test system: P388 leukemia ip, CD2F1 mice, survival T/C
Assay: NCI In Vivo Anticancer Drug Screen. Data for tumor model P388 Leukemia (intraperitoneal) in CD2F1 (CDF1) mice
Conditions: endpoint: median survival time, higher = longer survival
Method in brief: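 Mice carrying the transplanted tumor received test compound or vehicle. Survival was recorded in each group, and the value is the treated-group measurement divided by that of the vehicle-treated control group.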

[1] = dose: 100.0 mg/kg/injection, schedule: Q01DX009 (ip), vehicle: saline with Tween-80
[2] = dose: 200.0 mg/kg/injection, schedule: Q01DX009 (ip), vehicle: saline with Tween-80
[3] = dose: 60.0 mg/kg/injection, schedule: Q01DX005 (ip), vehicle: Klucel (hydroxypropylcellulose) (HPC)
[4] = dose: 120.0 mg/kg/injection, schedule: Q01DX005 (ip), vehicle: Klucel (hydroxypropylcellulose) (HPC)
[5] = dose: 240.0 mg/kg/injection, schedule: Q01DX005 (ip), vehicle: Klucel (hydroxypropylcellulose) (HPC)
[6] = dose: 50.0 mg/kg/injection, schedule: Q01DX005 (ip), vehicle: Klucel (hydroxypropylcellulose) (HPC)
[7] = dose: 100.0 mg/kg/injection, schedule: Q01DX005 (ip), vehicle: Klucel (hydroxypropylcellulose) (HPC)
[8] = dose: 200.0 mg/kg/injection, schedule: Q01DX005 (ip), vehicle: Klucel (hydroxypropylcellulose) (HPC)
[9] = dose: 50.0 mg/kg/injection, schedule: Q01DX009 (ip), vehicle: saline
[10] = dose: 100.0 mg/kg/injection, schedule: Q01DX009 (ip), vehicle: saline
[11] = dose: 200.0 mg/kg/injection, schedule: Q01DX009 (ip), vehicle: saline
[12] = dose: 50.0 mg/kg/injection, schedule: Q01DX009 (ip), vehicle: saline with Tween-80
[13] = dose: 60.0 mg/kg/injection, schedule: Q01DX005 (ip), vehicle: saline with Tween-80
[14] = dose: 120.0 mg/kg/injection, schedule: Q01DX005 (ip), vehicle: saline with Tween-80
[15] = dose: 240.0 mg/kg/injection, schedule: Q01DX005 (ip), vehicle: saline with Tween-80
[16] = dose: 50.0 mg/kg/injection, schedule: Q01DX005 (ip), vehicle: saline with Tween-80
[17] = dose: 100.0 mg/kg/injection, schedule: Q01DX005 (ip), vehicle: saline with Tween-80
[18] = dose: 200.0 mg/kg/injection, schedule: Q01DX005 (ip), vehicle: saline with Tween-80
[19] = dose: 12.5 mg/kg/injection, schedule: Q01DX005 (ip), vehicle: saline with Tween-80
[20] = dose: 25.0 mg/kg/injection, schedule: Q01DX005 (ip), vehicle: saline with Tween-80

CC(C)CCCCc1c[nH]c(=O)[nH]c1=O
T/C [1]: 95 % of control
T/C [2]: 90 % of control
T/C (dose: 400.0 mg/kg/injection, schedule: Q01DX009 (ip), vehicle: saline with Tween-80): 100 % of control

CN(Cc1ccc([N+](=O)[O-])cc1)C(=O)Nc1ccc(S(=O)(=O)F)cc1
T/C [3]: 110 % of control
T/C [4]: 92 % of control
T/C [5]: 92 % of control

COc1ccc2oc(=O)n(N=C(C)C)c(=O)c2c1
T/C [3]: 97 % of control
T/C [4]: 95 % of control
T/C [5]: 94 % of control

COc1ccc(-n2c(C)c(COC(=O)NC(C)C)c(COC(=O)NC(C)C)c2C)cc1
T/C (dose: 20.0 mg/kg/injection, schedule: Q01DX005 (ip), vehicle: Klucel (hydroxypropylcellulose) (HPC)): 163 % of control
T/C (dose: 40.0 mg/kg/injection, schedule: Q01DX005 (ip), vehicle: Klucel (hydroxypropylcellulose) (HPC)): 172 % of control
T/C [3]: 150 % of control and 186 % of control
T/C [4]: 181 % of control

CC(NC(=O)OCc1ccccc1)C(=O)NC(C(=O)O)C(C)O (centres undefined)
T/C [6]: 98 % of control
T/C [7]: 99 % of control
T/C [8]: 96 % of control

CCOC(=O)C1=C(C)NC(C)=C(C(=O)OCC)C1c1cccnc1
T/C (dose: 25.0 mg/kg/injection, schedule: Q01DX009 (ip), vehicle: distilled water + Tween-80): 101 % of control
T/C (dose: 50.0 mg/kg/injection, schedule: Q01DX009 (ip), vehicle: distilled water + Tween-80): 103 % of control
T/C (dose: 100.0 mg/kg/injection, schedule: Q01DX009 (ip), vehicle: distilled water + Tween-80): 94 % of control
T/C (dose: 200.0 mg/kg/injection, schedule: Q01DX009 (ip), vehicle: distilled water + Tween-80): 93 % of control
T/C (dose: 400.0 mg/kg/injection, schedule: Q01DX009 (ip), vehicle: distilled water + Tween-80): 88 % of control

OC1CN(c2ccccc2)CC1O (centres undefined)
T/C [6]: 105 % of control
T/C [7]: 96 % of control
T/C [8]: 97 % of control

CCOC(=O)/C=C/C(CO)OC(/C=C/C(=O)OCC)n1cnc2c(N)ncnc21 (centres undefined)
T/C (dose: 100.0 mg/kg/injection, schedule: Q04DX002 (ip), vehicle: Klucel (hydroxypropylcellulose) (HPC)): 101 % of control
T/C (dose: 200.0 mg/kg/injection, schedule: Q04DX002 (ip), vehicle: Klucel (hydroxypropylcellulose) (HPC)): 108 % of control
T/C (dose: 400.0 mg/kg/injection, schedule: Q04DX002 (ip), vehicle: Klucel (hydroxypropylcellulose) (HPC)): 111 % of control

C[N+](C)(CCS(=O)(=O)[O-])C1CCCCC1
T/C [9]: 98 % of control
T/C [10]: 90 % of control
T/C [11]: 91 % of control

C[Si](C)(C)O/C=C1\CCCCC1=O
T/C [12]: 121 % of control
T/C [1]: 106 % of control

O=S(=O)(OC1=C/[C@H](S(=O)(=O)c2ccccc2)/C=C\[C@H](S(=O)(=O)c2ccccc2)/C=C\1)c1ccccc1
T/C [13]: 97 % of control
T/C [14]: 93 % of control
T/C [15]: 91 % of control

O=C(NC(Cc1ccc(O)cc1)C(=O)NC(CO)C(=O)O)OCc1ccccc1 (stereo not drawn) (Cbz-Tyr-Ser-OH; configuration not given here)
T/C [16]: 101 % of control
T/C [17]: 101 % of control
T/C [18]: 106 % of control

Cn1c(CN(Cc2nc3ccccc3n2C)Cc2nc3ccccc3n2C)nc2ccccc21
T/C [19]: 103 % of control and 98 % of control
T/C [20]: 100 % of control and 102 % of control
T/C [16]: 103 % of control and 110 % of control

CC(C)CNC1=CC(=S)NC(C)(C)C1
T/C [6]: 99 % of control
T/C [7]: 101 % of control
T/C [8]: 94 % of control

O=[N+]([O-])c1ccc(SN2CCCCC2)c([N+](=O)[O-])c1
T/C [16]: 100 % of control
T/C [17]: 100 % of control
T/C [18]: 105 % of control

COc1ccccc1N1CCCSC1=Nc1ccccc1
T/C (dose: 12.5 mg/kg/injection, schedule: Q01DX009 (ip), vehicle: Klucel (hydroxypropylcellulose) (HPC)): 105 % of control
T/C (dose: 25.0 mg/kg/injection, schedule: Q01DX009 (ip), vehicle: Klucel (hydroxypropylcellulose) (HPC)): 98 % of control
T/C (dose: 50.0 mg/kg/injection, schedule: Q01DX009 (ip), vehicle: Klucel (hydroxypropylcellulose) (HPC)): 90 % of control
T/C (dose: 100.0 mg/kg/injection, schedule: Q01DX009 (ip), vehicle: Klucel (hydroxypropylcellulose) (HPC)): 119 % of control
T/C (dose: 200.0 mg/kg/injection, schedule: Q01DX009 (ip), vehicle: Klucel (hydroxypropylcellulose) (HPC)): 90 % of control

CSc1ccc(NC(=S)SC(C)C)cc1Cl
T/C [9]: 97 % of control
T/C [10]: 97 % of control
T/C [11]: 102 % of control

O=C(O)C1CCC=CCC1
T/C (dose: 50.0 mg/kg/injection, schedule: Q01DX009 (ip), vehicle: other): 100 % of control
T/C (dose: 100.0 mg/kg/injection, schedule: Q01DX009 (ip), vehicle: other): 104 % of control
T/C (dose: 200.0 mg/kg/injection, schedule: Q01DX009 (ip), vehicle: other): 100 % of control

C/C(=C1/SC(=S)NC1=O)c1ccc(Cl)c(O)c1
T/C [13]: 99 % of control
T/C [14]: 97 % of control
T/C [15]: 88 % of control

COC(=O)C1=C2Nc3ccccc3C23CCN2C4OC56C7CC4(CN5c4c(OC)cccc4C64CCN5CCC6OCCC6(C7)C54)C4OCCC4(C1)C23 (centres undefined)
T/C (dose: 100.0 mg/kg/injection, schedule: Q04DX002 (ip), vehicle: saline with Tween-80): 101 % of control
T/C (dose: 200.0 mg/kg/injection, schedule: Q04DX002 (ip), vehicle: saline with Tween-80): 101 % of control
T/C (dose: 400.0 mg/kg/injection, schedule: Q04DX002 (ip), vehicle: saline with Tween-80): 101 % of control

Cn1c(=O)[nH]c(Sc2ccccc2)c(C=O)c1=O
T/C (dose: 100.0 mg/kg/injection, schedule: Q01DX001 (ip), vehicle: saline with Tween-80): 104 % of control
T/C (dose: 200.0 mg/kg/injection, schedule: Q01DX001 (ip), vehicle: saline with Tween-80): 101 % of control

CCOC(=O)C12C=CC(=O)NC1(OC)OC(C)C2 (centres undefined)
T/C (dose: 100.0 mg/kg/injection, schedule: Q01DX001 (ip), vehicle: Klucel (hydroxypropylcellulose) (HPC)): 90 % of control
T/C (dose: 200.0 mg/kg/injection, schedule: Q01DX001 (ip), vehicle: Klucel (hydroxypropylcellulose) (HPC)): 94 % of control
T/C (dose: 400.0 mg/kg/injection, schedule: Q01DX001 (ip), vehicle: Klucel (hydroxypropylcellulose) (HPC)): 93 % of control

CCC1(c2ccccc2)NN1C1CCCCC1 (centres undefined)
T/C (dose: 6.25 mg/kg/injection, schedule: Q01DX005 (ip), vehicle: saline with Tween-80): 100 % of control
T/C [19]: 96 % of control
T/C [20]: 92 % of control
T/C [16]: 96 % of control
T/C [17]: 100 % of control
T/C [18]: 105 % of control

CC(C)COC(CNC(=O)c1ccccc1)C(Cl)(Cl)Cl (centres undefined)
T/C [12]: 100 % of control
T/C [1]: 100 % of control
T/C [2]: 110 % of control

CCSc1cccc2nncn12
T/C (dose: 50.0 mg/kg/injection, schedule: Q01DX001 (ip), vehicle: saline): 103 % of control
T/C (dose: 100.0 mg/kg/injection, schedule: Q01DX001 (ip), vehicle: saline): 100 % of control
T/C (dose: 200.0 mg/kg/injection, schedule: Q01DX001 (ip), vehicle: saline): 100 % of control

ON=C(C(Cl)(Cl)Cl)C(Cl)(Cl)Cl
T/C [13]: 100 % of control
T/C [14]: 100 % of control
T/C [15]: 97 % of control

Cn1cnc2c(=O)[nH]c(N)nc21
T/C [16]: 102 % of control
T/C [17]: 107 % of control
T/C [18]: 107 % of control

CCN(CC)Cc1cc(N2C(=O)CC3(CCCC3)C2=O)ccc1O
T/C (dose: 100.0 mg/kg/injection, schedule: Q04DX003 (ip), vehicle: Klucel (hydroxypropylcellulose) (HPC)): 100 % of control
T/C (dose: 200.0 mg/kg/injection, schedule: Q04DX003 (ip), vehicle: Klucel (hydroxypropylcellulose) (HPC)): 102 % of control
T/C (dose: 400.0 mg/kg/injection, schedule: Q04DX003 (ip), vehicle: Klucel (hydroxypropylcellulose) (HPC)): 105 % of control

C#Cc1cccc(N=Cc2ccc(C=Nc3cccc(C#C)c3)cc2)c1
T/C (dose: 6.25 mg/kg/injection, schedule: Q01DX009 (ip), vehicle: saline with Tween-80): 104 % of control
T/C (dose: 12.5 mg/kg/injection, schedule: Q01DX009 (ip), vehicle: saline with Tween-80): 112 % of control
T/C (dose: 25.0 mg/kg/injection, schedule: Q01DX009 (ip), vehicle: saline with Tween-80): 86 % of control
T/C [2]: 88 % of control
